Results from patent US6498159B1, “Phthalazine derivatives and remedies for erectile dysfunction” (Eisai Co., Ltd., priority 1998, dated 2002).

Key:
[1] = test system: penile cavernosum preparation removed from a rabbit; experiment: Augmenting action of PDE5 inhibitor on the relaxation by nitroprusside of the penile cavernosum preparation removed from a rabbit; conditions: for EC50: Oryctolagus cuniculus, compound concentration at which the contraction caused by phenylephrine is relaxed by 50%, regression analysis on relaxation curve, duplicate; for Relaxation ratio (%): after nitroprusside (300 μM), phenylephrine contraction, mean of duplicate
Protocol: 2) Augmenting Action of the PDE5 Inhibitor on the Relaxing Action of Nitroprusside on a Penile Cavernosum Preparation Removed from a Rabbit
The penis was removed from a NZW white rabbit (about 3 kg) killed by intravenous administration of pentobarbital (50 mg/kg). After removal, the cavernosum was exposed by removal of surrounding tissues such as albuginea to give a preparation (about 10×1.5×1.5 mm). This preparation was suspended on a Magnus tube filled up with 10 ml Krebs-Henseleit's nutritive solution (118.4 mM NaCl, 4.7 mM KCl, 2.5 mM CaCl2, 1.3 mM MgSO4, 1.2 mM KH2PO4, 25.0 mM NaHCO3, 11.0 mM glucose, 0.026 mM EDTA and 0.001 mM indomethacin) at 37° C., and a gas mixture (95% oxygen+5% carbon dioxide) was bubbled thereinto. Then, the isometric tension was recorded under a load of 2 g. To stabilize the contraction, contraction caused by adding a potassium chloride solution (final concentration: 100 mM) and washing were repeated twice, and further, contraction by adding phenylephrine (final concentration: 10 μM) and washing were also conducted.
It was filled up again with 10 ml Krebs-Henseleit's solution, and L-N^G-nitroarginine methyl ester (final concentration: 100 μM) was added to inhibit the formation of endogenous nitrogen monoxide. Contraction was caused by adding phenylephrine (final concentration: 10 μM), and a chemical solution was added thereto at a final concentration of 3, 30 or 300 nM. Dimethyl sulfoxide was used as the medium in this reaction. 15 min after the chemical was added, nitroprusside (final concentration: 300 μM) was added to relax the preparation. Further, papaverine (final concentration: 100 μM) was added to determine the maximum relaxation.
After the experiment, the tension generated upon adding papaverine was used as the base line, and the relaxation of the preparation by adding nitroprusside was recorded on a chart by using a DEGIMATIC CALIPER to determine the degree of relaxation.
Values in the table indicate relaxation ratio (%) after nitroprusside was added to the preparation pretreated with the 3, 30 and 300 nM compound, and the mean in a duplicate experiment was recorded. Further, the EC50 value indicates the compound concentration at which the contraction caused by phenylephrine is relaxed by 50%, and this value was calculated by regression analysis on a relaxation curve in the duplicate experiment.

PDE5 = PDE5 (Sus scrofa, UniProt A0A287B475); experiment: Inhibitory action on the enzyme cGMP-PDE obtained from porcine platelets; format: biochemical; conditions: 1 μM cGMP substrate, 1 mM EGTA, read-out: PDE 5 IC50
Protocol: 1) Inhibitory Action on the Enzyme cGMP-PDE Obtained from Porcine Platelets
The inhibitory activity of a test compound on the enzyme cGMP-PDE prepared from porcine platelets was determined by adding a solution of the test compound dissolved in DMSO to a reaction solution, where 1 μM cGMP was used as the substrate in the presence of 1 mM EGTA in accordance with a method of Tompson et al. The final concentration of DMSO in the reaction solution was 1% or less. Preparation of cGMP-PDE was conducted as follows. Porcine platelets were added to buffer A (20 mM Tris/HCl, 2 mM magnesium acetate, 10 mM 2-mercaptoethanol, 0.1 mM EGTA; pH 7.4), and then sonicated. The resulting suspension was centrifuged at 100,000×g for 60 min, and the resulting supernatant was subjected to a column (DEAE-Toyopearl 650S produced by Tosoh, Tokyo, Japan). After the column was washed with buffer A, the enzyme was eluted with a gradient of from 0.075 to 0.25 M NaCl in buffer A to give a CGMP-PDE fraction. The resulting fraction was dialyzed, concentrated and stored.

[2] = preparation pretreated with 3 nM compound
[3] = preparation pretreated with 30 nM compound
[4] = preparation pretreated with 300 nM compound

SMILES	EC50 [1]	IC50 (PDE5)	Relaxation ratio (%) [1, 2]	Relaxation ratio (%) [1, 3]	Relaxation ratio (%) [1, 4]
COc1ccc(CNc2nnc(N3CCC(C(F)CO)CC3)c3ccc(C#N)cc23)cc1Cl.Cl (stereo not drawn) [Example 36, 4-[(3-Chloro-4-methoxybenzyl)amino]-1-(4-[1-fluoro-2-hydroxyethyl)piperidino]-6-phthalazinecarbonitrile Hydrochloride]	3.5 nM	0.25 nM	35.0%	60.8%	54.8%
COc1ccc(CNc2nnc(N3CCC(OCCO)CC3)c3ccc(C#N)cc23)cc1Cl.Cl [Example 37, 4-[(3-Chloro-4-methoxybenzyl)amino]-1-[4-(2-hydroxyethoxy)piperidino]-6-phthalazinecarbonitrile Hydrochloride]	29.3 nM		33.4%	50.1%	56.0%
COc1ccc(CNc2nnc(N3CCC(O)CC3)c3ccc(C#N)cc23)cc1Br.Cl [Example 77, 4-[(3-Bromo-4-methoxybenzyl)amino]-1-(4-hydroxypiperidino)-6-phthalazinecarbonitrile Hydrochloride]	0.7 nM	0.23 nM	58.8%	71.7%	80.6%
COc1ccc(CNc2nnc(N3CCC4(CC3)CC(O)C4)c3ccc(C#N)cc23)cc1Cl.Cl [Example 9, 4-[(3-Chloro-4-methoxybenzyl)amino]-1-(2-hydroxy-7-azaspiro[3.5]non-7-yl)-6-phthalazinecarbonitrile Hydrochloride]	2 nM	0.54 nM	56.6%	77.7%	79.6%

Now from value to molecule, other results behind:

EC50 [1]	IC50 (PDE5)	SMILES	Relaxation ratio (%) [1, 2]	Relaxation ratio (%) [1, 3]	Relaxation ratio (%) [1, 4]
3 nM		COc1ccc(CNc2nnc(N3CCC(O)CC3)c3ccc(C#N)cc23)cc1C.Cl [Example 86, 1-(4-Hydroxypiperidino)-4-[(4-methoxy-3-methylbenzyl)amino]-6-phthalazinecarbonitrile Hydrochloride]	50.2%	70.2%	71.5%
2.8 nM	0.5 nM	COc1ccc(CNc2nnc(N3CCC(F)(CO)CC3)c3ccc(C#N)cc23)cc1Br.Cl [Example 83, 4-[(3-Bromo-4-methoxybenzyl)amino]-1-[4-fluoro-4-(hydroxymethyl)piperidino]-6-phthalazinecarbonitrile Hydrochloride]	50.6%	67.3%	69.9%
3 nM	0.89 nM	COc1ccc(CNc2nnc(N3CCC(F)(CO)CC3)c3ccc(C#N)cc23)cc1C.Cl [Example 88, 1-[4-Fluoro-4-(hydroxymethyl)piperidino]-4-[(4-methoxy-3-methylbenzyl)amino]-6-phthalazinecarbonitrile Hydrochloride]	50.0%	67.5%	75.0%
